Source: ChEMBL document CHEMBL1201862, “PubChem BioAssay data set” (2004)
Activity calls are given as the source filed them.

Tests used:
[1] = biological target: T1, Sentrin-specific protease 6 (Homo sapiens, UniProt Q9GZR1); type: functional;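 note: Luminescence-based dose-response confirmatory assay of SENP6 inhibition, following up an ultra-high-throughput screen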
T1 sequence (Q9GZR1 whole entry): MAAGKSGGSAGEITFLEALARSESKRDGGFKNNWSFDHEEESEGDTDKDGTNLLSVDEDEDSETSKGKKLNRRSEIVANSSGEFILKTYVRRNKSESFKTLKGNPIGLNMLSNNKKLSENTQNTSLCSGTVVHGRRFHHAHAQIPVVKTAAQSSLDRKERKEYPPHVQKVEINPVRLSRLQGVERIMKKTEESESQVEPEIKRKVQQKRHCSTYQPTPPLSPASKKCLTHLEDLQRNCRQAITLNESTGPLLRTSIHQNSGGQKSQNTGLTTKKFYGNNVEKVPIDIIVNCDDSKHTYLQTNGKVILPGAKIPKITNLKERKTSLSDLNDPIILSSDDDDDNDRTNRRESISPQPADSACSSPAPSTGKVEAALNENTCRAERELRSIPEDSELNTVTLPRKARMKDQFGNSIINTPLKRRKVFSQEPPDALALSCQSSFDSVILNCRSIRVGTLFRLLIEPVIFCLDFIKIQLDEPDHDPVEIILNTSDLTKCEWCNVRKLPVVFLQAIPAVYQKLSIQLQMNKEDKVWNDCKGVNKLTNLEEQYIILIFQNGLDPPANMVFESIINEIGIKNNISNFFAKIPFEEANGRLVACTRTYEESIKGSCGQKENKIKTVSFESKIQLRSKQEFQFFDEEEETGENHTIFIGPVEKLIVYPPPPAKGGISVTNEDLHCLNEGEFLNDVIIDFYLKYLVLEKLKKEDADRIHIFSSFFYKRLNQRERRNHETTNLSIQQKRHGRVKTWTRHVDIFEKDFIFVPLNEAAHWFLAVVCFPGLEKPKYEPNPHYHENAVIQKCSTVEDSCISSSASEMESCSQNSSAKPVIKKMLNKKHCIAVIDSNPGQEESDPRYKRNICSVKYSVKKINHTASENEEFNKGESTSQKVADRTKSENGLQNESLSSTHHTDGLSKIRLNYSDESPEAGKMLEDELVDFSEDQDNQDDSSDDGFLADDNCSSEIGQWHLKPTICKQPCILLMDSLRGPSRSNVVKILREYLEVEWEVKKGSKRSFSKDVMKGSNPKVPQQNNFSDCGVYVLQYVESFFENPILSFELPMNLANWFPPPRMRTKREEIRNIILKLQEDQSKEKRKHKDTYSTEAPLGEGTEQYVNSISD

[2] = biological target: T2, Sentrin-specific protease 8 (Homo sapiens, UniProt Q96LD8); type: functional;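 note: luminescence read-out of SENP8 inhibition, dose-response confirmation following an ultra-high-throughput screen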
T2 sequence (Q96LD8 whole entry): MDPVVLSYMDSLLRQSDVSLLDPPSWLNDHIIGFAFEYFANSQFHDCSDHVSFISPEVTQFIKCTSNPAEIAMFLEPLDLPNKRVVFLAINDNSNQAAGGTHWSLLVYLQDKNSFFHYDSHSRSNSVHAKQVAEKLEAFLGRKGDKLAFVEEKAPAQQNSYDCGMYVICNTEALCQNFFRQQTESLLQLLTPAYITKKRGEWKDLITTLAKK

[3] = biological target: T3, Sentrin-specific protease 7 (Homo sapiens, UniProt Q9BQF6); type: functional;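 note: Luminescence-based dose-response confirmation of ultra-high-throughput screening hits, measuring inhibition of SENP7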
T3 sequence (Q9BQF6 whole entry): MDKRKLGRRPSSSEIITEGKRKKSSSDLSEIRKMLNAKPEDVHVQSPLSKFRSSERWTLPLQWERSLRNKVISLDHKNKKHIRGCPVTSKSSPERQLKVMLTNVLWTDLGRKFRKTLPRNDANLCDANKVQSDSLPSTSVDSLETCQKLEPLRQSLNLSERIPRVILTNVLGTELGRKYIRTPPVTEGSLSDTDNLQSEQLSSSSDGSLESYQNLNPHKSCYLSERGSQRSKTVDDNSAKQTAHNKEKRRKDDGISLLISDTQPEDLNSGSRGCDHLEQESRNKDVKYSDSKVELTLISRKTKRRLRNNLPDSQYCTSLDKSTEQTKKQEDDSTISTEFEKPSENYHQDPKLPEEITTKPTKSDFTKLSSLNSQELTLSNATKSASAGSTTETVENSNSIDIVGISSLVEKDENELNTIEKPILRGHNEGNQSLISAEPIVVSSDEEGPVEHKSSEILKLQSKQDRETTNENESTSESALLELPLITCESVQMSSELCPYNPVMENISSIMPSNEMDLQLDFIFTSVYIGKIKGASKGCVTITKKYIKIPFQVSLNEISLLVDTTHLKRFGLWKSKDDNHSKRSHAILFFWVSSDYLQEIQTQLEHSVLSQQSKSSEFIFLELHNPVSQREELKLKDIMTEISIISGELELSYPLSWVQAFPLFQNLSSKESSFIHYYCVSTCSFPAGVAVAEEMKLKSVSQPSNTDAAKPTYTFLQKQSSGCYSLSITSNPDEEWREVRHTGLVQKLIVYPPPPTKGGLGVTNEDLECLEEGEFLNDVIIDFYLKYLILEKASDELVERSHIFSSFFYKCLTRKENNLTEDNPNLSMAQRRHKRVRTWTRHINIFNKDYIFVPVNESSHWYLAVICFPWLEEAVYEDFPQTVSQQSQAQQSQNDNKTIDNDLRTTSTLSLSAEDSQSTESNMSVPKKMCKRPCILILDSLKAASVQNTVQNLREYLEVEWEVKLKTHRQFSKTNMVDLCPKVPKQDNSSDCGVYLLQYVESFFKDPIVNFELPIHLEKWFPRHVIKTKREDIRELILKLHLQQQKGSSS

[4] = biological target: T4, Caspase-3 (Homo sapiens, UniProt P42574); type: functional;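 note: Dose-response selectivity test against caspase-3 for candidate inhibitors of sentrin-specific proteases (SENPs)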
T4 sequence (P42574 whole entry): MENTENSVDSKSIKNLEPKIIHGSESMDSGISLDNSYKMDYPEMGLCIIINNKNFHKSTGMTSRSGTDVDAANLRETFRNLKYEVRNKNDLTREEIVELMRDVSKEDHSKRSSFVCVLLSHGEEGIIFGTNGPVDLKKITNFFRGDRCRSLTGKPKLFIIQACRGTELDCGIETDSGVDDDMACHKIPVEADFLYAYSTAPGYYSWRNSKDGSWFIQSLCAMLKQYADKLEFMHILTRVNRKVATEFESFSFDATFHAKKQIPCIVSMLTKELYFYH

[5] = biological target: Photoreceptor-specific nuclear receptor (Homo sapiens, UniProt Q9Y5X4); type: functional, cell-based;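 note: CHO-S cells with Gal4-NCOR and VP16-NR2E3 two-hybrid luciferase reporter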
[6] = biological target: T5, Heat shock factor protein 1 (Mus musculus, UniProt P38532); test: decrease of HSF1-responsive luciferase luminescence – cell-based, NIH3T3, dose retest, confirmation (AID 2382); type: functional;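 note: NIH3T3 fibroblasts with HSF1-driven luciferase reporter stressed by proteasome inhibitor MG132; luminescence from HSF1-driven luciferase expression after 8 hours of MG132 stress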
T5 sequence (P38532 whole entry): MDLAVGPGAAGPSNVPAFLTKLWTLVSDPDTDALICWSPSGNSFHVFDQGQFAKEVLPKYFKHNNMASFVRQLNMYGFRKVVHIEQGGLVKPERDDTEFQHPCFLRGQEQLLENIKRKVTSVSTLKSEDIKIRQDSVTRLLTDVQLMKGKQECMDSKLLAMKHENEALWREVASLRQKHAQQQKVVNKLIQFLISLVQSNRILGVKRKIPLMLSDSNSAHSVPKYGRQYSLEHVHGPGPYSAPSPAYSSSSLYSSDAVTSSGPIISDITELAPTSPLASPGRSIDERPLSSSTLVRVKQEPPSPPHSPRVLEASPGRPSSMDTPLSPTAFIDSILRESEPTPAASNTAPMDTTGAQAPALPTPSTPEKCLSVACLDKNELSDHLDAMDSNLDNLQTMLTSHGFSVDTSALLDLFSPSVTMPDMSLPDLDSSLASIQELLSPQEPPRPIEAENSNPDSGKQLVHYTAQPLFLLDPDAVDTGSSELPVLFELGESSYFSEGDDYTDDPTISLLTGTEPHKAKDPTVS

[7] = tested on: INS1; test: INS-1E survival protection against cytokine death – cell-based, luminescence, retest, dose response (AID 449756); type: functional; details: Rattus norvegicus;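 note: cell death triggered by IL-1 beta plus TNF-alpha plus IFN-gamma mixture; protective hits raise ATP signal compared with cytokine alone wells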
[8] = Trypanosoma cruzi growth suppression in host cells – NIH3T3 host cells, beta-gal luminescence, confirmation (AID 2044); type: functional, cell-based;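 note: intracellular parasites grown in NIH/3T3 mouse fibroblasts as host cells; luminescent beta-galactosidase reporter signal from transgenic T. cruzi replicating inside host cells; inhibitors lower the luminescence signal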
[9] = biological target: ATP-dependent molecular chaperone HSP82 (Candida albicans (strain WO-1) (Yeast), UniProt C4YTQ8); test: steroid-induced GRE reporter decrease in yeast – S. cerevisiae, luminescence, Hsp90 inhibitor project, dose response (AID 2400); type: functional, cell-based;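 note: beta-galactosidase luminescence from glucocorticoid response element reporter as proxy for Hsp90 function; inhibitor potency where signal loss means Hsp90 inhibition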
[10] = fluconazole-exposed Candida albicans growth modulators – fluorescence, retest, confirmation (AID 2467); type: functional, cell-based
[11] = biological target: T6, Microphthalmia-associated transcription factor (Homo sapiens, UniProt O75030); test: reducers of TRPM1 reporter luminescence, concentration series – cell-based, SK-MEL-5, cherry-picked, set 3, MITF inhibitor project, dose response (AID 493073); type: functional;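 note: SK-MEL-5 melanoma cells with luciferase driven by the MITF target TRPM1 promoter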
T6 sequence (O75030 whole entry): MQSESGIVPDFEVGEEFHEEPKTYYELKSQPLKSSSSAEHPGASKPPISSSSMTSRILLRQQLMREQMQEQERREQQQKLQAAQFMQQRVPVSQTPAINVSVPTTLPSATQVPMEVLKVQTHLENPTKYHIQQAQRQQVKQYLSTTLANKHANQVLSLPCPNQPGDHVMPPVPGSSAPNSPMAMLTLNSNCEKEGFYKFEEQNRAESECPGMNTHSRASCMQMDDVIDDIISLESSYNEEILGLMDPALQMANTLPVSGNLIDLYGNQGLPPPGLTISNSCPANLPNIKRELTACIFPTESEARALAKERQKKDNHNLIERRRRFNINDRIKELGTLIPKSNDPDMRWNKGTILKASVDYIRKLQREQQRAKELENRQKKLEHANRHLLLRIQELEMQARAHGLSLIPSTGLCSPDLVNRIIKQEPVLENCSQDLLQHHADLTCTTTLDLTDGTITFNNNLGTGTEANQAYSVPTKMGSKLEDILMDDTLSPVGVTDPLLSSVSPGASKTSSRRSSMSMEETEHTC

[12] = loss of viability in HepG2 cells – cell-based, CellTiter-Glo, cherry-picked, cytotoxicity control for Shn3 inhibitor project, dose response (AID 624134); type: functional
[13] = non-specific 3'UTR reporter inhibition in Clone20-Shn3RL – cell-based, Renilla luciferase, cherry-picked, counter-screen for Shn3 inhibitor project, dose response (AID 624133); type: functional
[14] = biological target: T7, Serine/threonine-protein phosphatase (Candida dubliniensis (strain CD36 / CBS 7987 / NCPF 3949 / NRRLY-17841) (Yeast), UniProt B9W6M3); test: blockers of CaCl2-induced CDRE-lacZ signaling – S. cerevisiae, luminescence, secondary, dose response (AID 2388); type: functional, cell-based;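 note: yeast reporter cells carrying a calcineurin-responsive lacZ construct stimulated with calcium chloride; luminescent beta-galactosidase reporter signal in whole cells rather than isolated phosphatase activity; potency for inhibition where a drop in reporter signal means calcineurin blockade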
T7 sequence (B9W6M3 whole entry): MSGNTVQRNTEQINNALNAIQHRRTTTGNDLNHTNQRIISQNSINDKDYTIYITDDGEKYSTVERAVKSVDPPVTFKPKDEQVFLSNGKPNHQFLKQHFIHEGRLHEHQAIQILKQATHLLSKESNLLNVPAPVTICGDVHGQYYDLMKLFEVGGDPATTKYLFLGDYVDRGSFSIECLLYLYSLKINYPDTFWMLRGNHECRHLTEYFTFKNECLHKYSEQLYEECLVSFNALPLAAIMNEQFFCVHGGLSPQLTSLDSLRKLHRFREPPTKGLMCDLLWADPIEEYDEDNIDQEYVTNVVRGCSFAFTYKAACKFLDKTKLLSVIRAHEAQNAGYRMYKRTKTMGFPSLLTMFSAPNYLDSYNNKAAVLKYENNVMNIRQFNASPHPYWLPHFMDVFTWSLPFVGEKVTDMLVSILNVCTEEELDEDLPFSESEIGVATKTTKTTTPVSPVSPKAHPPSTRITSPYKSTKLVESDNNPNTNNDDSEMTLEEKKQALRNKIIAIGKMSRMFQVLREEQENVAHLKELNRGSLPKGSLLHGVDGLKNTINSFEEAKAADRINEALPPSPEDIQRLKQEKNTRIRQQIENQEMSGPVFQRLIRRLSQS

[15] = NIH-3T3 fibroblast cytotoxicity, dose response, cytotoxicity control, cell-based, fluorescence, Alamar Blue, secondary assay (AID 2327); type: functional;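 note: NIH-3T3 mouse fibroblasts cultured with fluconazole at 8 µg/mL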
[16] = tested on: A-375; test: MITF: Counter assay: A375 proliferation Measured in Cell-Based System Using Plate Reader - 2084-03_Inhibitor_Dose_DryPowder_Activity. [Related pubchem assays (depositor defined):AID488944]; type: functional; details: Homo sapiens
[17] = NIH3T3 cell viability loss – ATP luminescence, mouse fibroblasts, counter-screen, dose response (AID 2010); type: functional, cell-based;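 note: cells exposed to compound for about 90 hours before reading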
[18] = biological target: Nonstructural protein 1 (Influenza A virus, UniProt Q194T2); type: functional, Influenza A virus (A/California/07/2009(H1N1))
[19] = reduction of Shn3 3'UTR-driven luciferase in osteoblasts – cell-based, Clone20 osteoblasts, firefly luciferase, cherry-picked, dose response (AID 624132); type: functional;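 note: firefly luciferase luminescence from reporter carrying the Shn3 3'UTR in osteoblasts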
[20] = tested on: H4; test: Luminescence Cell-Based Dose Response HTS to Identify Activators of 5'UTR Stem-Loop Driven Prion Protein mRNA Translation in H4 Neuroglioblastoma Cells. [Related pubchem assays: 1829 (Project Summary), 1814 (Primary HTS)]; type: functional; details: Homo sapiens
[21] = Luminescence Cell-Based Dose Response HTS to Identify Activators of Luciferase Translation or Activity in H4 […] Cells. [Related pubchem assays: 1829 (Project Summary), 1814 (Primary HTS)]; type: functional
[22] = Luminescence Cell-Based Dose Confirmation HTS to Identify Activators of 5'UTR Stem-Loop Driven Alpha-Synuclein mRNA Translation in H4 Neuroglioblastoma Cells. [Related pubchem assays: 1829 (Project Summary), 1814 (Primary HTS)]; type: functional

ATP-dependent molecular chaperone HSP82, sequence (C4YTQ8 whole entry): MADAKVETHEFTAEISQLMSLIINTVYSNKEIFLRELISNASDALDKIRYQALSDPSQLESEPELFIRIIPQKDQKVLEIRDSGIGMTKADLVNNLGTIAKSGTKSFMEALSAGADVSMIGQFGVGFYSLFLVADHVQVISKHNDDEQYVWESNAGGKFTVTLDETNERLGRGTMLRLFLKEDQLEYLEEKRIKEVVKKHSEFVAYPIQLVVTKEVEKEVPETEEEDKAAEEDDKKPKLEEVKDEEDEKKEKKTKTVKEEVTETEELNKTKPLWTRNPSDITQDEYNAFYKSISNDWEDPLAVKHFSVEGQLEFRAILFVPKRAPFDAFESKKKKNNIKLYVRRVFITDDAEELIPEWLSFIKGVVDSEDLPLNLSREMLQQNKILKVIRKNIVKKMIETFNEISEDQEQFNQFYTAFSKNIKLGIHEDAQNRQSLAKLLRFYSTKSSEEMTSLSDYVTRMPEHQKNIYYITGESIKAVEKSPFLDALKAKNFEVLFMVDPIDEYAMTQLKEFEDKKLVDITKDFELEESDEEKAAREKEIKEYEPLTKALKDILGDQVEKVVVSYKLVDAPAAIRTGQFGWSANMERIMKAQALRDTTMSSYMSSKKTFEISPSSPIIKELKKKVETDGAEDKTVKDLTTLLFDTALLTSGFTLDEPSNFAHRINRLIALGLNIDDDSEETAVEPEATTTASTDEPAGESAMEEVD
Nonstructural protein 1, sequence (Q194T2 whole entry): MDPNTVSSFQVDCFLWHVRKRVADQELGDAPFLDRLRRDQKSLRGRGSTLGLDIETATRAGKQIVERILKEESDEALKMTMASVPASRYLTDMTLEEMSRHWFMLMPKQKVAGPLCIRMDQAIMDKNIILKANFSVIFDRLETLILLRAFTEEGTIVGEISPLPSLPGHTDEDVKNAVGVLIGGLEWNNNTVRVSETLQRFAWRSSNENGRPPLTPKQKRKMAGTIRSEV
Photoreceptor-specific nuclear receptor, sequence (Q9Y5X4 whole entry, the tested form may be a part): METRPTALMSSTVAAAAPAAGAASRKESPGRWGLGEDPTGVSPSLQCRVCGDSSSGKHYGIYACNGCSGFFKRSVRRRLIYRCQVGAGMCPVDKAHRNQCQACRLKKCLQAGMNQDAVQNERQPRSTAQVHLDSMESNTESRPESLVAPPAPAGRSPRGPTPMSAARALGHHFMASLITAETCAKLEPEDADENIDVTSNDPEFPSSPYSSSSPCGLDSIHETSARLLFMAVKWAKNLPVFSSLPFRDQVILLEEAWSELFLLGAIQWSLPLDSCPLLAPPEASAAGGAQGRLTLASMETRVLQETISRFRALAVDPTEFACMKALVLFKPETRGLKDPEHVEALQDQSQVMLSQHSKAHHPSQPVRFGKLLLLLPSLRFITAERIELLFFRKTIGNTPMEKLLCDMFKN

CSc1ncccc1C(=O)OCc1ccccc1
active: IC50 [1] 31.8 µM | IC50 [2] 43.6 µM | IC50 [3] 9.53 µM | IC50 [4] 21.3 µM

O=[N+]([O-])c1cc(CN2CCN(c3ccccc3)CC2)c(O)c2ncccc12
active: AC50 [7] 1.17 µM | EC50 [8] 0.295 µM | EC50 [9] 18 µM | EC50 [10] 0.201 µM | AC50 [11] 8.3 µM | AC50 [12] 3.74 µM | AC50 [13] 2.28 µM | AC50 [16] 49.4 µM | EC50 [17] 0.809 µM | IC50 [18] 3.42 µM | AC50 [19] 1.99 µM
inconclusive: EC50 [15] 23 µM
> 195 µM (not active): EC50 [6]
inactive: IC50 [5] 13.9 µM | EC50 [14] > 180 µM

O=c1cc(-c2cccs2)oc2ccc(Cl)cc12
inactive: IC50 [1] > 100 µM | IC50 [2] > 100 µM
active: IC50 [3] 7.72 µM | IC50 [4] 18 µM | EC50 [21] 5.5 µM | EC50 [22] 3.83 µM
> 120 µM (not active): EC50 [20]
